Results on seven molecules are retold here after US12234221B2, “Pyridine carboxamide compounds for inhibiting NAV1.8” (Lieber Institute, Inc., priority 2018, dated 2025).

For experiment [1], the target named is T1, human Nav1.8 (hNav1.8) ion channel (Homo sapiens, UniProt Q9Y5Y9).
T1 construct: expressed in transfected cells; host or cells: HEK293
In words: Nav1.8 channel inhibition, estimated IC50 (one or more of: fluorescence inhibition assay, PatchXpress, IonFlux HT automated patch clamp). Format: cell-based. The note with it: HEK293 cells stably expressing hNav1.8; method used per compound not stated; read-out: Activity range (estimated IC50). The essentials:
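HEK293 cells stably expressing hNav1.8 with β1/β2 subunits; IC50 from the fluorescence assay and/or automated whole-cell patch clamp (PatchXpress, IonFlux HT). Fluorescence: ANG-2 Na dye, 5 min compound preincubation (0.02–5 μM, 1% DMSO) with 30 μM ouabain, stimulation by 10 μM deltamethrin, peak signal fit logistically. PatchXpress: holding potential reset to Vhalf, inhibition normalized to control/washout currents.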

Experiment [2] deals with Nav 1.8. The note with it: PTHS models (ex vivo cell model, rodent models); cited from earlier work.
For experiment [3], the target named is T2, Nav 1.8 (Mus musculus, UniProt Q6QIY3).
T2 construct: host or cells: mouse, in vivo
The note with it: mouse model of MS; cited from earlier work.

Where only a bound is given, the exact number is not on record here.

T1 sequence (Q9Y5Y9 whole entry): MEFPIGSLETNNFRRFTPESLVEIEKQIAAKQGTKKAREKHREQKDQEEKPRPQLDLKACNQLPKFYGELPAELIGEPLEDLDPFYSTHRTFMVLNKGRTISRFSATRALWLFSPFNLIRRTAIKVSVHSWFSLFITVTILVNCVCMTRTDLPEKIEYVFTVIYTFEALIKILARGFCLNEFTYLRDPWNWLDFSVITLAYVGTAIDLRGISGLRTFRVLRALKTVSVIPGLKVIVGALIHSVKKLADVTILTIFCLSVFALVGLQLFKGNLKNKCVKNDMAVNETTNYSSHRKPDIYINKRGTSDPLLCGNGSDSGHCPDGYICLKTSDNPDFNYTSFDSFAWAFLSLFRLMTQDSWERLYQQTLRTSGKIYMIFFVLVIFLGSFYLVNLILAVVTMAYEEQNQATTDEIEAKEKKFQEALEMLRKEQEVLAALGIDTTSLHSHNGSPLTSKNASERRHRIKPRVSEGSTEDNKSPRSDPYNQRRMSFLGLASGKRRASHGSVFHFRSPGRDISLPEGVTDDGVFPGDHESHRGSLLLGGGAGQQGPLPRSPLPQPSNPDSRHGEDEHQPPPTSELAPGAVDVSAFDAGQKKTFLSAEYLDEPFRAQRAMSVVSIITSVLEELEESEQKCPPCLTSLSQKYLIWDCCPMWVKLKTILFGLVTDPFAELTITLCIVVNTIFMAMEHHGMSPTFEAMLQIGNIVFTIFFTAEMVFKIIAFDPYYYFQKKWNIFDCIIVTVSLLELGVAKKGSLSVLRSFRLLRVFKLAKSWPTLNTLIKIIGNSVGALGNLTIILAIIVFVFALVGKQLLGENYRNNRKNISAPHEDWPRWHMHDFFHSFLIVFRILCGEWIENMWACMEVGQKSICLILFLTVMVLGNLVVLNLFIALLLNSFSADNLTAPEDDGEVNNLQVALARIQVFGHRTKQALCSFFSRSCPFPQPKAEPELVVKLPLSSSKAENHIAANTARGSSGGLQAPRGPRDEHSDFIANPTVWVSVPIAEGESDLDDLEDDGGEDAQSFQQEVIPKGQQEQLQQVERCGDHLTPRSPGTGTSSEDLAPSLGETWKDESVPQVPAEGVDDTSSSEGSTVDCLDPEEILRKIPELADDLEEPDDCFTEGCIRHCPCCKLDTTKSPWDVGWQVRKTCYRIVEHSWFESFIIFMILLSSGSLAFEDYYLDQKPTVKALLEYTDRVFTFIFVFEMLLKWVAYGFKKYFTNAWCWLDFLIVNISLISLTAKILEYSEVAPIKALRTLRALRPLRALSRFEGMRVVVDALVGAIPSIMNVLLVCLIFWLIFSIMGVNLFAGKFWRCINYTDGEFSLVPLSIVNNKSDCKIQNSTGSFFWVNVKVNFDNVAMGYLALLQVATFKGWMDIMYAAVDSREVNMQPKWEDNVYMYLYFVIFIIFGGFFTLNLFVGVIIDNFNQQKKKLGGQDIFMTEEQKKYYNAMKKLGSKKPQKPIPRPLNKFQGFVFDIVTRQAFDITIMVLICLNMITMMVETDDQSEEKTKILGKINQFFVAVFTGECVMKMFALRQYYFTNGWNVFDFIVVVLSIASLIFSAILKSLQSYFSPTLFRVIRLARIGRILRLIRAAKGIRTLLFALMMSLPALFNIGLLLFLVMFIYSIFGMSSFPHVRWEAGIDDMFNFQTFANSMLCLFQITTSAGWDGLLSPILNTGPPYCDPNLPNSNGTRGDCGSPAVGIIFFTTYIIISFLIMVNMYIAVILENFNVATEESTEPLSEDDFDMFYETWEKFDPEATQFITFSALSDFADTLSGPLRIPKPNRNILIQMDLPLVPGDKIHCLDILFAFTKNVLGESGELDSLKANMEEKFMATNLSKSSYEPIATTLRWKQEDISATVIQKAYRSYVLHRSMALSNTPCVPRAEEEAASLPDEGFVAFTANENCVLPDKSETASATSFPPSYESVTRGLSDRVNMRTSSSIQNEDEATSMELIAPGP
T2 sequence (Q6QIY3 whole entry): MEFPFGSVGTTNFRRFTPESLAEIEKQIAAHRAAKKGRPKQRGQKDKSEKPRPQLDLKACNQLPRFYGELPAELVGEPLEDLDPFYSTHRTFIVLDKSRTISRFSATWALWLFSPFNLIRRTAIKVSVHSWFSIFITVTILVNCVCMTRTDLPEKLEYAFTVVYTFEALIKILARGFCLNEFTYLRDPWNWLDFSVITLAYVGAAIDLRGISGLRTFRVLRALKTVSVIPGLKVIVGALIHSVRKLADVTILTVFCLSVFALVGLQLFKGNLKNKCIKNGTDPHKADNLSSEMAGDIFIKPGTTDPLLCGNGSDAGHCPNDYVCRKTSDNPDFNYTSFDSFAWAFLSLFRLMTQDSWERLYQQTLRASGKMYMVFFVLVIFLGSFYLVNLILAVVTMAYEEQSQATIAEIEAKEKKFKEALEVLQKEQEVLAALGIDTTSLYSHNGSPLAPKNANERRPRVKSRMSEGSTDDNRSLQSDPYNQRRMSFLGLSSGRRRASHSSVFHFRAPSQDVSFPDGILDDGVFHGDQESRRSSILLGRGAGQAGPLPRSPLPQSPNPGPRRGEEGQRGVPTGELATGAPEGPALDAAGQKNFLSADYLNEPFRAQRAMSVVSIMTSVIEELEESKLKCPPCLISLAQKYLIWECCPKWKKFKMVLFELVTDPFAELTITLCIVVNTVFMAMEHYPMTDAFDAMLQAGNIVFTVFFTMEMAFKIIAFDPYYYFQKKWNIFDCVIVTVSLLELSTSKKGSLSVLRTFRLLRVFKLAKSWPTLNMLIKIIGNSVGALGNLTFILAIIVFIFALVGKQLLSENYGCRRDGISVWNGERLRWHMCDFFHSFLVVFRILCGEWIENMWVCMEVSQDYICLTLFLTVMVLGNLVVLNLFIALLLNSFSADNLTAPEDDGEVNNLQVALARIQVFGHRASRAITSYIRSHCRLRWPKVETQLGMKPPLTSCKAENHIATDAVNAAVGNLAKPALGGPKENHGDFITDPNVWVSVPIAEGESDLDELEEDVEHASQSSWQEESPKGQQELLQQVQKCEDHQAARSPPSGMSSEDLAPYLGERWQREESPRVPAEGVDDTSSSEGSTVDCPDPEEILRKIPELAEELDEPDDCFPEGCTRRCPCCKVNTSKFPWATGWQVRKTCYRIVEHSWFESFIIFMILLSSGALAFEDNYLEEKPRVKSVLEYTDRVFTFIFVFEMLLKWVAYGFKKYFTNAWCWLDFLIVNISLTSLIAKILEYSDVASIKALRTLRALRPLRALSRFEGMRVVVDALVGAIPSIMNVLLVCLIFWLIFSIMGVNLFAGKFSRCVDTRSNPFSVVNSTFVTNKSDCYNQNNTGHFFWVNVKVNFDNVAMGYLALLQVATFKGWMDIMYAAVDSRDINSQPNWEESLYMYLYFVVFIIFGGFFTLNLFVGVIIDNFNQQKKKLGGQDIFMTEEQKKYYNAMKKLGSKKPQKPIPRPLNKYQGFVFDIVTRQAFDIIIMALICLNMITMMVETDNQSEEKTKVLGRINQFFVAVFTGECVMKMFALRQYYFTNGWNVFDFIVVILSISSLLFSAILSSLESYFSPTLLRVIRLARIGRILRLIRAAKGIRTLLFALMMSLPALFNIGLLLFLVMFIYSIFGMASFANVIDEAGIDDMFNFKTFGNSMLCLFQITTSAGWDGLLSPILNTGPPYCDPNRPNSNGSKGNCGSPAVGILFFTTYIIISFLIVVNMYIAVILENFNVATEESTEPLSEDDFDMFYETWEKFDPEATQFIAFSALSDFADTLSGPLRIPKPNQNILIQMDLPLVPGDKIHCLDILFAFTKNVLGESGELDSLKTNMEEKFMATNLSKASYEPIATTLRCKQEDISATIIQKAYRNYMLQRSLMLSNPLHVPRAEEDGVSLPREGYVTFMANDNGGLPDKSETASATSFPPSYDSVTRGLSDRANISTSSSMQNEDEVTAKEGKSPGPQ

Take `COc1cc(F)ccc1Oc1nc(OC)c(F)cc1C(=O)Nc1cccc(S(C)(=O)=O)c1` [Example 178, 5-fluoro-2-(4-fluoro-2-methoxy-phenoxy)-6-methoxy-N-(3-methylsulfonylphenyl)pyridine-3-carboxamide]: in experiment [1], the IC50 is less than 500 nM.

Regarding `COc1cc(F)ccc1Oc1ncc(OC(F)F)cc1C(=O)Nc1cccc(S(C)(=O)=O)c1` [Example 179, 5-(difluoromethoxy)-2-(4-fluoro-2-methoxy-phenoxy)-N-(3-methylsulfonylphenyl)pyridine-3-carboxamide], in experiment [1], the IC50 is less than 500 nM.

For the molecule `CS(=O)(=O)c1cccc(NC(=O)c2cc([N+](=O)[O-])cnc2Oc2ccc(OC(F)(F)F)cc2)c1` [Example 180, N-(3-methylsulfonylphenyl)-5-nitro-2-[4-(trifluoromethoxy)phenoxy]pyridine-3-carboxamide], in experiment [1], the concentration for half-maximal inhibition (IC50) was less than 500 nM.

For `CS(=O)(=O)c1cccc(NC(=O)c2cc(Cl)cnc2Oc2ccc(OC(F)(F)F)cc2)c1` [Example 181, 5-chloro-N-(3-methylsulfonylphenyl)-2-[4-(trifluoromethoxy)phenoxy]pyridine-3-carboxamide], the IC50 in experiment [1] was less than 500 nM.

For the molecule `COc1cc(NC(=O)c2ccc(-c3ccc(Cl)cc3)o2)cc(OC)c1` [Example A-803467, 5-4(-chlorophenyl)-N-(3,5-dimethoxyphenyl)furan-2-carboxamide], in the experiment with Nav 1.8 [2], the “effect on excitability phenotypes” value is listed as “can rapidly reverse some of the excitability phenotypes”.

Take `CNC(=O)c1ccc(-c2cc(Cl)cc(Cl)c2Cl)c(N)n1` [PF 01247324, N-methyl-6-amino-5-(2,3,5-trichlorophenyl)pyridine-2-carboxamide]: on Nav 1.8 [3], the “effect on cerebellar deficits” value is reported as “reverses cerebellar deficits”.

As for `COc1ccc(Cl)c(-c2ccc(NC(=O)c3ccnn3C)nc2N)c1` [PF 4531083, N-[6-amino-5-(2-chloro-5-methoxyphenyl)pyridin-2-yl]-1-methyl-1H-pyrazole-5-carboxamide], the “effect on excitability phenotypes” value in the experiment with Nav 1.8 [2] is given as “can rapidly reverse some of the excitability phenotypes”.

By IC50 is commonly meant the point on the concentration scale where inhibition reaches its midpoint.
